Laboratory results as given in ChEMBL document CHEMBL5303573, “Mapping human microbiome drug metabolism by gut bacteria and their genes” (Nature, 2019).

Tests used:
[1] = akkermansia muciniphila, 12 h, 2 µM
Description: The drug is tested on Akkermansia muciniphila strain: ATCC BAA-835 for biotransformation. The drug concentrations were measured before and after a 12-h incubation by liquid-chromatography-coupled mass spectrometry (LC–MS)

[2] = bacteroides thetaiotaomicron, 12 h, 2 µM
Description: The drug is tested on Bacteroides thetaiotaomicron strain: VPI-5482 for biotransformation. The drug concentrations were measured before and after a 12-h incubation by liquid-chromatography-coupled mass spectrometry (LC–MS)

[3] = The drug is tested on Bacteroides fragilis strain: HMW615 for biotransformation. The drug concentrations were measured before and after a 12-h incubation by liquid-chromatography-coupled mass spectrometry (LC–MS); conditions: 2 µM
[4] = parabacteroides distasonis, 12 h, 2 µM
Description: The drug is tested on Parabacteroides distasonis strain: ATCC8503 for biotransformation. The drug concentrations were measured before and after a 12-h incubation by liquid-chromatography-coupled mass spectrometry (LC–MS)

[5] = bacteroides eggerthii, 12 h, 2 µM
Description: The drug is tested on Bacteroides eggerthii strain: DSM20697 for biotransformation. The drug concentrations were measured before and after a 12-h incubation by liquid-chromatography-coupled mass spectrometry (LC–MS)

[6] = The drug is tested on Clostridium sp. strain: fecal isolate for biotransformation. The drug concentrations were measured before and after a 12-h incubation by liquid-chromatography-coupled mass spectrometry (LC–MS); conditions: 2 µM
[7] = The drug is tested on Blautia luti strain: DSM14534 for biotransformation. The drug concentrations were measured before and after a 12-h incubation by liquid-chromatography-coupled mass spectrometry (LC–MS); format: ADME; parameters: dose 2 uM, timepoint 0 vs 12 hours; conditions: 2 µM
[8] = The drug is tested on Anaerococcus hydrogenalis strain: DSM7454 for biotransformation. The drug concentrations were measured before and after a 12-h incubation by liquid-chromatography-coupled mass spectrometry (LC–MS); conditions: 2 µM
[9] = The drug is tested on Providencia rettgeri strain: DSM1131 for biotransformation. The drug concentrations were measured before and after a 12-h incubation by liquid-chromatography-coupled mass spectrometry (LC–MS); format: ADME; parameters: dose 2 uM, timepoint 0 vs 12 hours; conditions: 2 µM
[10] = The drug is tested on Clostridium scindens strain: ATCC35704 for biotransformation. The drug concentrations were measured before and after a 12-h incubation by liquid-chromatography-coupled mass spectrometry (LC–MS); conditions: 2 µM
[11] = roseburia intestinalis, 12 h, 2 µM
Description: The drug is tested on Roseburia intestinalis strain: L1-82 for biotransformation. The drug concentrations were measured before and after a 12-h incubation by liquid-chromatography-coupled mass spectrometry (LC–MS)

[12] = The drug is tested on Subdoligranulum variabile strain: DSM15176 for biotransformation. The drug concentrations were measured before and after a 12-h incubation by liquid-chromatography-coupled mass spectrometry (LC–MS); conditions: 2 µM
[13] = bacteroides fragilis, 12 h, 2 µM
Description: The drug is tested on Bacteroides fragilis strain: DS-208 for biotransformation. The drug concentrations were measured before and after a 12-h incubation by liquid-chromatography-coupled mass spectrometry (LC–MS)

[14] = anaerostipes sp., 12 h, 2 µM
Description: The drug is tested on Anaerostipes sp. strain: fecal isolate for biotransformation. The drug concentrations were measured before and after a 12-h incubation by liquid-chromatography-coupled mass spectrometry (LC–MS)

[15] = bacteroides stercoris, 12 h, 2 µM
Description: The drug is tested on Bacteroides stercoris strain: ATCC43183 for biotransformation. The drug concentrations were measured before and after a 12-h incubation by liquid-chromatography-coupled mass spectrometry (LC–MS)

[16] = The drug is tested on Bacteroides fragilis strain: HMW610 for biotransformation. The drug concentrations were measured before and after a 12-h incubation by liquid-chromatography-coupled mass spectrometry (LC–MS); conditions: 2 µM
[17] = The drug is tested on Ruminococcus lactaris strain: ATCC29176 for biotransformation. The drug concentrations were measured before and after a 12-h incubation by liquid-chromatography-coupled mass spectrometry (LC–MS); conditions: 2 µM
[18] = The drug is tested on Bacteroides vulgatus strain: ATCC8482 for biotransformation. The drug concentrations were measured before and after a 12-h incubation by liquid-chromatography-coupled mass spectrometry (LC–MS); conditions: phocaeicola vulgatus, 2 µM
[19] = parabacteroides johnsonii, 12 h, 2 µM
Description: The drug is tested on Parabacteroides johnsonii strain: DSM18315 for biotransformation. The drug concentrations were measured before and after a 12-h incubation by liquid-chromatography-coupled mass spectrometry (LC–MS)

[20] = The drug is tested on Bacteroides cellulosilyticus strain: DSM14838 for biotransformation. The drug concentrations were measured before and after a 12-h incubation by liquid-chromatography-coupled mass spectrometry (LC–MS); conditions: 2 µM

Row | SMILES | Bacterial Biotransformation [1] | Bacterial Biotransformation [2] | Bacterial Biotransformation [3] | Bacterial Biotransformation [4] | Bacterial Biotransformation [5] | Bacterial Biotransformation [6] | Bacterial Biotransformation [7] | Bacterial Biotransformation [9] | Bacterial Biotransformation [10] | Bacterial Biotransformation [12] | Bacterial Biotransformation [13] | Bacterial Biotransformation [14] | Bacterial Biotransformation [15] | Bacterial Biotransformation [20] | Bacterial Biotransformation [8] | Bacterial Biotransformation [11] | Bacterial Biotransformation [16] | Bacterial Biotransformation [17] | Bacterial Biotransformation [18] | Bacterial Biotransformation [19]
1 | CCCCCCOC(=O)/N=C(/N)c1ccc(NCc2nc3cc(C(=O)N(CCC(=O)OCC)c4ccccn4)ccc3n2C)cc1.CS(=O)(=O)O [DABIGATRAN ETEXILATE MESYLATE] | Compound NOT metabolized | Compound NOT metabolized | – | Compound NOT metabolized | Compound NOT metabolized | – | Compound NOT metabolized | Compound NOT metabolized | Compound NOT metabolized | Compound NOT metabolized | Compound NOT metabolized | Compound NOT metabolized | Compound NOT metabolized | Compound NOT metabolized | Compound NOT metabolized | Compound NOT metabolized | – | Compound NOT metabolized | Compound NOT metabolized | –
2 | COc1ccc(C(CN(C)C)C2(O)CCCCC2)cc1 (configuration not stated) [VENLAFAXINE] | Compound NOT metabolized | Compound NOT metabolized | Compound NOT metabolized | Compound NOT metabolized | Compound NOT metabolized | Compound NOT metabolized | Compound NOT metabolized | Compound NOT metabolized | Compound NOT metabolized | Compound NOT metabolized | Compound NOT metabolized | Compound NOT metabolized | Compound NOT metabolized | – | Compound NOT metabolized | Compound NOT metabolized | Compound NOT metabolized | Compound NOT metabolized | Compound NOT metabolized | Compound NOT metabolized
3 | C[C@@H](c1ncncc1F)[C@](O)(Cn1cncn1)c1ccc(F)cc1F [VORICONAZOLE] | Compound NOT metabolized | – | Compound metabolized | Compound metabolized | Compound NOT metabolized | Compound NOT metabolized | Compound NOT metabolized | – | Compound NOT metabolized | Compound NOT metabolized | Compound metabolized | Compound NOT metabolized | – | – | Compound NOT metabolized | Compound NOT metabolized | Compound metabolized | Compound NOT metabolized | Compound metabolized | Compound NOT metabolized
4 | CC(=O)CC(c1ccccc1)c1c(O)c2ccccc2oc1=O (configuration not stated) [WARFARIN] | Compound NOT metabolized | Compound NOT metabolized | Compound metabolized | Compound NOT metabolized | Compound NOT metabolized | Compound NOT metabolized | Compound NOT metabolized | Compound NOT metabolized | Compound NOT metabolized | Compound NOT metabolized | Compound NOT metabolized | Compound NOT metabolized | Compound NOT metabolized | – | Compound NOT metabolized | Compound NOT metabolized | – | Compound NOT metabolized | Compound metabolized | Compound NOT metabolized

The next lines start with results.

Row | Bacterial Biotransformation [1] | Bacterial Biotransformation [2] | Bacterial Biotransformation [3] | Bacterial Biotransformation [4] | Bacterial Biotransformation [5] | Bacterial Biotransformation [6] | Bacterial Biotransformation [7] | Bacterial Biotransformation [9] | Bacterial Biotransformation [10] | Bacterial Biotransformation [12] | Bacterial Biotransformation [13] | Bacterial Biotransformation [14] | Bacterial Biotransformation [15] | Bacterial Biotransformation [20] | SMILES | Bacterial Biotransformation [8] | Bacterial Biotransformation [11] | Bacterial Biotransformation [16] | Bacterial Biotransformation [17] | Bacterial Biotransformation [18] | Bacterial Biotransformation [19]
5 | Compound NOT metabolized | Compound NOT metabolized | Compound NOT metabolized | Compound NOT metabolized | Compound NOT metabolized | Compound NOT metabolized | Compound NOT metabolized | Compound NOT metabolized | Compound NOT metabolized | Compound NOT metabolized | Compound NOT metabolized | Compound NOT metabolized | Compound NOT metabolized | – | COc1cc2nc(N(C)CCCNC(=O)C3CCCO3)nc(N)c2cc1OC (configuration not stated) [ALFUZOSIN] | Compound NOT metabolized | Compound NOT metabolized | – | – | – | –
6 | Compound NOT metabolized | Compound NOT metabolized | Compound NOT metabolized | Compound NOT metabolized | Compound NOT metabolized | Compound NOT metabolized | Compound NOT metabolized | Compound NOT metabolized | Compound NOT metabolized | Compound NOT metabolized | Compound NOT metabolized | Compound NOT metabolized | Compound NOT metabolized | – | O=C(NCc1ccccc1)OCCO [BURAMATE] | – | Compound NOT metabolized | Compound NOT metabolized | Compound NOT metabolized | Compound NOT metabolized | Compound NOT metabolized
7 | Compound metabolized | Compound metabolized | Compound metabolized | Compound metabolized | Compound metabolized | Compound metabolized | Compound NOT metabolized | Compound NOT metabolized | Compound NOT metabolized | Compound NOT metabolized | Compound metabolized | Compound NOT metabolized | – | – | COC1=CC(=O)C[C@@H](C)[C@]12Oc1c(Cl)c(OC)cc(OC)c1C2=O [GRISEOFULVIN] | Compound NOT metabolized | – | – | – | Compound metabolized | –
8 | Compound NOT metabolized | Compound NOT metabolized | – | Compound NOT metabolized | Compound NOT metabolized | – | Compound NOT metabolized | – | – | Compound NOT metabolized | Compound NOT metabolized | Compound NOT metabolized | Compound NOT metabolized | Compound NOT metabolized | CCN(CC)CCCC(C)Nc1c2ccc(Cl)cc2nc2ccc(OC)cc12 (configuration not stated) [QUINACRINE] | – | Compound NOT metabolized | – | – | Compound NOT metabolized | –
9 | Compound NOT metabolized | Compound NOT metabolized | Compound NOT metabolized | – | Compound NOT metabolized | Compound NOT metabolized | Compound NOT metabolized | Compound NOT metabolized | Compound NOT metabolized | Compound NOT metabolized | Compound NOT metabolized | Compound NOT metabolized | Compound NOT metabolized | – | c1ccc2[nH]c(-c3cscn3)nc2c1 [THIABENDAZOLE] | Compound NOT metabolized | Compound NOT metabolized | – | Compound NOT metabolized | – | Compound NOT metabolized
10 | – | Compound NOT metabolized | – | Compound NOT metabolized | – | Compound metabolized | Compound NOT metabolized | – | Compound NOT metabolized | Compound NOT metabolized | Compound NOT metabolized | Compound NOT metabolized | – | Compound NOT metabolized | OC(CCN1CCCCC1)(c1ccccc1)C1CCCCC1 (configuration not stated) [TRIHEXYPHENIDYL] | Compound NOT metabolized | – | Compound NOT metabolized | Compound NOT metabolized | – | Compound NOT metabolized
